# Laboratory results taken from US9133122B2, “Amide compounds, compositions and uses thereof” (EVOTEC AG, priority 2008, dated 2015).
# How the values were obtained:
# hP2X2/3H = biological target: T1, hP2X2/3H (Homo sapiens, UniProt P56373+Q9UBL9); assay: Calcium uptake assay (Ca influx), P2X antagonist assay, P2X2/3 heteromer; format: cell-based; conditions: inhibition of agonist-induced calcium influx
# T1 construct: expressed in transfected cells
# T1 sequence (P56373 1-397): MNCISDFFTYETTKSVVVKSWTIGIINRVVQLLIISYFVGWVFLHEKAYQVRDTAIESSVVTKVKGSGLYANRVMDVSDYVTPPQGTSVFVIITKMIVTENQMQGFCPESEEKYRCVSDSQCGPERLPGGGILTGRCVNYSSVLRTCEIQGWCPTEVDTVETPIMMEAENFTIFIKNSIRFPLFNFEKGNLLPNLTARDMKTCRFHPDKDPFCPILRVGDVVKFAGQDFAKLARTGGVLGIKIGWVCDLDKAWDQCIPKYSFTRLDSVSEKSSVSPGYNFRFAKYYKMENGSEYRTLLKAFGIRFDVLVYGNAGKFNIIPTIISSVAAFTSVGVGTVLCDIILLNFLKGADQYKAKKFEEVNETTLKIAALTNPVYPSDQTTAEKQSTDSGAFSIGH
# T1 sequence (Q9UBL9 1-471): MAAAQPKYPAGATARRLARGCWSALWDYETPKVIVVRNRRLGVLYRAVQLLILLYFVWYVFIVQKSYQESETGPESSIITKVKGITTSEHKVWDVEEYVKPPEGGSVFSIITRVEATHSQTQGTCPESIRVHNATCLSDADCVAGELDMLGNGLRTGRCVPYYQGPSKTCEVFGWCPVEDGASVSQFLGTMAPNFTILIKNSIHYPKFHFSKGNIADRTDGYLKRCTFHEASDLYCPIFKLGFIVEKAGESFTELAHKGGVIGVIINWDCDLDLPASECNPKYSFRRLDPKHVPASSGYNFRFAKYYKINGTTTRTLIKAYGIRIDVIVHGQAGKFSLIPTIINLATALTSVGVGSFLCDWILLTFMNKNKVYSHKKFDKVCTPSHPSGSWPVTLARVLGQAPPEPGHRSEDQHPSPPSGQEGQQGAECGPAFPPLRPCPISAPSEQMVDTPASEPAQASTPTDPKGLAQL
# Description: (§1) Human P2X3 (Accession no. NM_002559), P2X2 (Accession no. NM_170682) and Rat P2X3 (Accession no. NM_031075) and P2X2 (Accession no. NM_053656) are cloned into a mammalian expression vector (e.g., pcDNAS/TO or pcDNA3 Invitrogen). The human P2X2/3 chimera clone is created as described by Neelands et al, and then cloned into an expression vector as above. Receptors are expressed in cells (e.g., HEK293 or 1321N1 (obtained from the ECACC)) via transient transfection using standard lipid mediated transfection, or by creation of stable transfectants for each receptor. For expression of the P2X2/3 heteromeric receptor, the P2X3 expression vector is stably transfected into a cell line already stably expressing P2X2. P2X2/3 heteromer function is isolated using pharmacological methods. Cell lines are maintained in DMEM+5% Glutamax, the appropriate level of selective antibiotic, and 10% heat inactivated FBS.
# (§2) Functional activity of compounds at the P2X receptor is determined by measuring their ability to inhibit agonist-induced calcium influx. Compounds are tested for antagonist activity against the P2X2/3 chimera, the P2X3 homomer, or the P2X2/3 heteromer. At the start of each screening day, the agonist EC50 is determined. Compound % inhibition or IC50s are subsequently determined using a predetermined agonist concentration (EC50-90 depending on cell line) as a stimulus. The agonists used are αβMeATP, ATP, or other ATP analogs. Compounds may be tested at concentrations ranging from 1 pM to 10 μM.
# (§3) To test for antagonist activity, cells expressing the appropriate receptor are seeded onto 96 or 384 well plates 18-24 hours prior to assay. On the day of the assay, cells are loaded with calcium-sensitive fluorescent dye (e.g., Fluo-4 no wash reagent-Invitrogen cat#F36206, or the BD™ PBX Calcium Assay Kit-BD cat #640175) in Hank's Buffered Salt Solution (HBSS) with up to 10 mM supplemental CaCl2. Plates are incubated at 37° C. and then equilibrated at room temperature. Antagonism of agonist-induced calcium influx is measured using a fluorescent imaging plate reader (e.g. FLIPR^TETRA, Molecular Devices, Sunnyvale, Calif.). The assay comprises two stages: a pre-treatment phase followed by a treatment phase. Compounds may be tested as follows: For the pre-treatment phase, 50 μL of 3× concentration of test compound in HBSS is added to cells containing 100 μL of dye loading media to achieve a final concentration of 1× test compound. For the treatment phase, at a set interval after pre-treatment (1-30 minutes), 50 μL of 1× test compound plus 4× agonist solution is added, resulting in a final concentration of 1× compound and 1× agonist. Fluorescence is measured at 0.1-3 second intervals—with an excitation wavelength of 494 nm and an emission wavelength of 515 nm. Responses are measured as (peak fluorescence after agonist addition) minus (baseline fluorescence prior to treatment). Percent inhibition is calculated as follows:
# (§4) [formula] IC50 values are determined by analyzing dose response data in a 4 parameter logistic fit using GraphPad Prizm.
# (§5) The following compounds have been or can be prepared according to the synthetic methods described herein. A calcium uptake assay was performed as described above and the activity of each compound is expressed as follows: […]
# hP2X3 = biological target: T2, hP2X3 (Homo sapiens, UniProt P56373); assay: Calcium uptake assay (Ca influx), P2X antagonist assay, P2X3 homomer; format: cell-based; conditions: inhibition of agonist-induced calcium influx
# T2 construct: expressed in transfected cells
# T2 sequence (P56373 1-397): T1 sequence (P56373 1-397)
# Description: as §1, §2, §3, §4, §5
SMILES,IC50 (hP2X2/3H),IC50 (hP2X3)
"Cc1ccc(-c2cc(C(=O)NCc3cnc(C)nc3)cc(-c3ccc(C)cn3)c2)cc1 [Compound 1, 4′-Methyl-5-(5-methyl-pyridin-2-yl)-biphenyl-3-carboxylic acid (2-methyl-pyrimidin-5-ylmethyl)-amide]",87.6 nM,58.8 nM
"Cc1ccc(-c2cc(C(=O)NCc3cnc(C)nc3)cc(-c3ncccn3)c2)cc1 [Compound 2, 4′-Methyl-5-pyrimidin-2-yl-biphenyl-3-carboxylic acid (2-methyl-pyrimidin-5-ylmethyl)-amide]",407 nM,78.5 nM
"COc1ccccc1-c1cc(C(=O)NCc2ccc(C)nc2)cc(-c2ccc(C)cc2)c1 [Compound 4, 2″-Methoxy-4-methyl-[1,1′;3′,1″]terphenyl-5′-carboxylic acid (6-methyl-pyridin-3-ylmethyl)-amide]",1060 nM,306 nM
"Cc1ccc(-c2cc(C(=O)NCc3ccc(C)nc3)cc(-c3ccc(F)cc3F)c2)cc1 [Compound 5, 2″,4″-Difluoro-4-methyl-[1,1′;3′,1″]terphenyl-5′-carboxylic acid (6-methyl-pyridin-3-ylmethyl)-amide]",8310 nM,1960 nM
"Cc1ccc(-c2cc(C(=O)NCc3ccc(C)nc3)cc(-c3ccccc3F)c2)cc1 [Compound 6, 2″-Fluoro-4-methyl-[1,1′;3′,1″]terphenyl-5′-carboxylic acid (6-methyl-pyridin-3-ylmethyl)-amide]",418 nM,342 nM
"COc1ccc(-c2cc(C(=O)NCc3ccc(C)nc3)cc(-c3ccc(C)cc3)c2)cc1 [Compound 7, 4″-Methoxy-4-methyl-[1,1′;3′,1″]terphenyl-5′-carboxylic acid (6-methyl-pyridin-3-ylmethyl)-amide]",9200 nM,2460 nM
"Cc1ccc(-c2cc(C(=O)NCc3ccc(C)nc3)cc(-c3ccccc3CO)c2)cc1 [Compound 8, 2″-Hydroxymethyl-4-methyl-[1,1′;3′,1″]terphenyl-5′-carboxylic acid (6-methyl-pyridin-3-ylmethyl)-amide]",116 nM,182 nM
"COc1ccc(-c2cc(C(=O)NCc3ccc(C)nc3)cc(-c3ccc(C)cc3)c2)c(OC)c1 [Compound 9, 2″,4″-Dimethoxy-4-methyl-[1,1′;3′,1″]terphenyl-5′-carboxylic acid (6-methyl-pyridin-3-ylmethyl)-amide]",415 nM,484 nM
"COc1ccc(-c2cc(C(=O)NCc3ccc(C)nc3)cc(-c3ccc(C)cc3)c2)cc1OC [Compound 10, 3″,4″-Dimethoxy-4-methyl-[1,1′;3′,1″]terphenyl-5′-carboxylic acid (6-methyl-pyridin-3-ylmethyl)-amide]",1270 nM,759 nM
"COc1cccc(-c2cc(C(=O)NCc3ccc(C)nc3)cc(-c3ccc(C)cc3)c2)c1 [Compound 11, 3″-Methoxy-4-methyl-[1,1′;3′,1″]terphenyl-5′-carboxylic acid (6-methyl-pyridin-3-ylmethyl)-amide]",1060 nM,485 nM
"COc1ncc(-c2cc(C(=O)NCc3ccc(C)nc3)cc(-c3ccc(C)cc3)c2)cn1 [Compound 12, 5-(2-Methoxy-pyrimidin-5-yl)-4′-methyl-biphenyl-3-carboxylic acid (6-methyl-pyridin-3-ylmethyl)-amide]",291 nM,292 nM
"Cc1ccc(-c2cc(C(=O)NCc3ccc(C)nc3)cc(-c3ccccc3OC(F)(F)F)c2)nc1 [Compound 14, 5-(5-Methyl-pyridin-2-yl)-2′-trifluoromethoxy-biphenyl-3-carboxylic acid (6-methyl-pyridin-3-ylmethyl)-amide]",172 nM,318 nM
"COc1ncc(-c2cc(C(=O)NCc3ccc(C)nc3)cc(-c3ccc(C)cn3)c2)cn1 [Compound 16, 3-(2-Methoxy-pyrimidin-5-yl)-5-(5-methyl-pyridin-2-yl)-N-(6-methyl-pyridin-3-ylmethyl)-benzamide]",269 nM,95.6 nM
"Cc1ccc(-c2cc(C(=O)NCc3ccc(C)nc3)cc(-c3ccc(C#N)cc3)c2)cc1 [Compound 24, 4″-Cyano-4-methyl-[1,1′;3′,1″]terphenyl-5′-carboxylic acid (6-methyl-pyridin-3-ylmethyl)-amide]",–,626 nM

# Second part, the molecule after the results:
IC50 (hP2X2/3H),IC50 (hP2X3),SMILES
12.9 nM,9 nM,"Cc1ccc(-c2cc(C(=O)NCc3ccc(C)nc3)cc(-c3ccccc3CO)c2)nc1 [Compound 13, 2′-Hydroxymethyl-5-(5-methyl-pyridin-2-yl)-biphenyl-3-carboxylic acid (6-methyl-pyridin-3-ylmethyl)-amide]"
54.9 nM,73.2 nM,"Cc1ccc(-c2cc(C(=O)NCc3ccc(C)nc3)cc(-c3ccccc3F)c2)nc1 [Compound 15, 2′-Fluoro-5-(5-methyl-pyridin-2-yl)-biphenyl-3-carboxylic acid (6-methyl-pyridin-3-ylmethyl)-amide]"
24.5 nM,21.6 nM,"Cc1ccc(-c2cc(C(=O)NCc3ccc(C)nc3)cc(-c3ccccc3C#N)c2)nc1 [Compound 17, 2′-Cyano-5-(5-methyl-pyridin-2-yl)-biphenyl-3-carboxylic acid (6-methyl-pyridin-3-ylmethyl)-amide]"
–,43.2 nM,"Cc1ccc(-c2cc(C(=O)N[C@@H](C)CO)cc(-c3cccc(F)c3F)c2)nc1 [Compound 70, 2′,3′-Difluoro-5-(5-methyl-pyridin-2-yl)-biphenyl-3-carboxylic acid ((S)-2-hydroxy-1-methyl-ethyl)-amide]"
–,59.4 nM,"Cc1ccc(-c2cc(C(=O)N[C@@H](C)CO)cc(-c3c(C)cccc3C#N)c2)nc1 [Compound 72, 6′-Cyano-2′-methyl-5-(5-methyl-pyridin-2-yl)-biphenyl-3-carboxylic acid ((S)-2-hydroxy-1-methyl-ethyl)-amide]"
–,77.7 nM,"Cc1ccc(-c2cc(C(=O)N[C@@H](C)CO)cc(-c3ccc(C#N)cc3C)c2)nc1 [Compound 76, 4′-Cyano-2′-methyl-5-(5-methyl-pyridin-2-yl)-biphenyl-3-carboxylic acid ((S)-2-hydroxy-1-methyl-ethyl)-amide]"
–,33.2 nM,"Cc1ccc(-c2cc(C(=O)N[C@@H](C)CO)cc(-c3ccccc3CO)c2)nc1 [Compound 82, 2′-Hydroxymethyl-5-(5-methyl-pyridin-2-yl)-biphenyl-3-carboxylic acid ((S)-2-hydroxy-1-methyl-ethyl)-amide]"
–,7.1 nM,"Cc1ccc(-c2cc(C(=O)N[C@@H](C)CO)cc(-c3ccccc3CO)c2)c(C#N)c1 [Compound 88, 2-Cyano-2″-hydroxymethyl-4-methyl-[1,1′;3′,1″]terphenyl-5′-carboxylic acid ((S)-2-hydroxy-1-methyl-ethyl)-amide]"
